Measured values reported in patent US8642621B2, “(4-phenyl-piperidin-1-yl)-[5-(1H-pyrazol-4-yl)-thiophen-3-yl]-methanone compounds and their use” (The University Of Edinburgh, priority 2009, dated 2014).
Where two headings read alike, the source gives them in different places.

Tests used:
human 11β-HSD1 enzyme = target: T1, human 11β-HSD1 enzyme (Homo sapiens, UniProt P28845); experiment: Cellular in vitro 11β-HSD1 enzyme inhibition assay (SPA, HEK293/11β-HSD1 cells); assay type: cell-based
T1 construct: stably transfected with a construct containing the full-length gene coding for the human 11β-HSD1 enzyme; expressed in transfected cells; HEK293/11β-HSD1 cells)
T1 sequence (P28845 whole entry): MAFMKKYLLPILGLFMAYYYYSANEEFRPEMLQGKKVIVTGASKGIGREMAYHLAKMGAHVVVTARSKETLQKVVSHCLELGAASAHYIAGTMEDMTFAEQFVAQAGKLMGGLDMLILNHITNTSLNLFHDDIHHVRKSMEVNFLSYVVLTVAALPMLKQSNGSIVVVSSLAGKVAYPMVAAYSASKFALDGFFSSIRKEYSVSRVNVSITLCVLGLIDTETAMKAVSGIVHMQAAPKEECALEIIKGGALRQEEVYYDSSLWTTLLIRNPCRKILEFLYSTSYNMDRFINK
Procedure: Cellular In Vitro 11β-HSD1 Enzyme Inhibition Assay
Compounds were assessed by a Scintillation Proximity Assay (SPA) performed according to the following protocol:
HEK293 cells were stably transfected with a construct containing the full-length gene coding for the human 11β-HSD1 enzyme to create HEK293/11β-HSD1 cells. Cells were routinely cultured in DMEM containing 10% calf foetal serum, 1% glutamine, and 1% penicillin and streptomycin. Prior to assay, cells were plated at 2×10^4 cells/well in 96-well poly-D-Lys coated flat-bottomed microplates and incubated in 5% CO2, 95% O2 at 37° C. for 24 hours. The media in each well was removed immediately before assay.
Compounds to be tested were dissolved in DMSO at 10 mM and serially diluted into water containing 10% DMSO. Diluted compounds at a volume of 10 μL were added to wells of a 96-well V-bottomed microplate. A solution of DMEM, 1% glutamine, 1% penicillin and streptomycin, and 22 nM tritiated cortisone was prepared and 90 μL added to each well of the assay plate. This solution (100 μL/well) was transferred to the plate containing the cells. The plate was then incubated in 5% CO2, 95% O2 at 37° C. for 2 hours.
Following this incubation, 50 μL of the assay solution was transferred to each well of a 96-well scintillation microplate. A mixture consisting of anti-mouse YSi SPA beads, pre-mixed with anti-cortisol antibody in assay buffer (50 mM Tris.HCl, pH 7.0; 300 mM NaCl; 1 mM EDTA, 5% glycerol) was prepared and 50 μL added to each well of the scintillation microplate. An adhesive strip was applied to the microplate and the plate gently shaken for at least 2 hours at room temperature, and then spun briefly on a low speed centrifuge. The plate was read on a scintillation counter suitable for 96-well microplates. For the calculation of percentage inhibition, a series of wells were added to the plate that represented the assay maximum and the assay minimum: one set that contained substrate without cells (minimum) and another set that contained substrate and cells without any compound (maximum).
The calculation of median inhibitory concentration (IC50) values for the compounds was performed using GraphPad Prism® software. Dose-response curves for each compound were plotted as fractional inhibition and data fitted to the four parameter logistic equation.

[1] = In vitro human liver microsomal stability assay; assay type: in vitro ADME; conditions: human liver microsomes
Procedure: In Vitro Human Liver Microsomal Stability Assay
To predict in vivo metabolism of compounds, the stability of compounds incubated with human liver microsomes in vitro was determined. Human liver microsome preparations were stored at −80° C. and thawed on ice prior to use. The thawed microsomes were diluted to a concentration of 2 mg/mL in 50 mM sodium phosphate, pH 7.4. Reference and test compounds were prepared as 10 mM stocks in 100% DMSO and diluted to 1 mM in acetonitrile before use. Each compound was tested in triplicate as follows:
4 μL of test or reference compound was added to a well of a 24-well microplate and 0.5 mL of 4 mM NADPH added. The plate was then transferred to a shaker for 10 minutes at room temperature. 30 μL of the compound/NADPH solution was transferred to the well of a 96-well microplate and incubated at 37° C. for 5 minutes. 30 μL of human liver microsomes (pre-incubated at 37° C. for 5 minutes) was added to the well containing the compound/NADPH solution and the plate incubated for the selected period of time (typically 0 or 30 minutes). The reaction was stopped by adding 60 μL of ice cold […] trichloroacetic acid. The plate was centrifuged at 1000 rpm for 5 minutes at room temperature and the supernatant transferred to the well of a new 96-well v-bottomed microplate for mass spectrometric analysis.
Samples were analyzed by TSQ Quantum Discovery Tandem Mass Spectrometer and Surveyor Liquid Chromatogram (Thermo, Hemel-Hempstead, UK). 10 μL of each sample was injected in a mobile phase consisting of 60%:40% methanol:5 mM ammonium acetate at a flow rate of 0.5 mL/minute. The column used was a BDS hypersil, C18, 50×2.1 mm with a 5 μm particle size.
Each compound was tuned with a spray voltage of 3000 V and a capillary temperature of 300° C. and values for tube lens, CID and product ions were determined.
The peak area for each compound was measured in triplicate for the 0 and 30 minute samples and the average of each was reported. The percentage remaining after 30 minutes was calculated as the average peak area of the sample after 30 minutes divided by the average peak area at 0 minutes. The RSD was 10% or lower for each compound.

human 11β-HSD2 = target: T2, human 11β-HSD2 (Homo sapiens, UniProt P80365); experiment: Cellular in vitro 11β-HSD2 enzyme inhibition assay (CHO cells); assay type: cell-based; conditions: CHO cells stably transfected with human 11β-HSD2; Table 1
T2 construct: CHO cells stably transfected with the full-length gene coding for human 11β-HSD2 were used; expressed in transfected cells
T2 sequence (P80365 1-405): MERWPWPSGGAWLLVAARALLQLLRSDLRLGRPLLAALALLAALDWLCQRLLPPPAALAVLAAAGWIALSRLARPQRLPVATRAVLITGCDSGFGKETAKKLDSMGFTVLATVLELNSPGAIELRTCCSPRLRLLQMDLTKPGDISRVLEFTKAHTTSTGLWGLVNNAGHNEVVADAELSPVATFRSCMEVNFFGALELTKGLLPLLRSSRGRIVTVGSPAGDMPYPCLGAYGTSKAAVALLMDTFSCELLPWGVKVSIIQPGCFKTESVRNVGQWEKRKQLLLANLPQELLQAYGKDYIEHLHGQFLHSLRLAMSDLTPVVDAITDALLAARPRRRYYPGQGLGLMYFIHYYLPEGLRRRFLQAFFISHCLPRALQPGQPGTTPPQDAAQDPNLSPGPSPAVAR
Procedure: Cellular In Vitro 11β-HSD2 Enzyme Inhibition Assay
Assays were carried out in 96-well microplates containing 1×10^5 cells/well. Controls and compounds were plated as above, so that the final DMSO concentration in each well was 1%. To initiate the assay, 90 μL of a solution of HAMS F-12 medium containing 1% glutamine, 1% penicillin and streptomycin, and 22 nM tritiated cortisol was added to each well of the assay plate. The plate was then incubated in 5% CO2, 95% O2 at 37° C. for 16 hours.
The assay solutions were transferred to glass tubes and 20 μL ethyl acetate added to each tube. Each tube was vortexed thoroughly and the upper layer containing the tritiated steroid transferred to a fresh glass tube. The solvent was evaporated by placing the tubes in a heating block at 65° C. under a stream of Nitrogen gas. 20 μL ethanol was added to each of the dried samples and vortexed briefly. Each sample was applied to a silica TLC plate and the plate dried. The plate was placed vertically in a glass tank containing 92% chloroform:8% ethanol and the solvent allowed to rise up the plate. The plate was dried, placed in an imaging cassette, and overlayed with a tritium imaging plate for 1-2 days. The amount of enzyme inhibition in each sample was determined by measuring the intensity of the substrate and product spots using a phosphoimager.
IC50 values for inhibitors were determined as described for 11β-HSD1.

[2] = read-out: IC50 for 11β-HSD1 (HEK293)

Structure (SMILES): O=C(c1csc(-c2cn[nH]c2)c1)N1CCC(O)(c2cc(Cl)ccc2Cl)CC1 [AA-31]
- IC50 (human 11β-HSD1 enzyme; [2]): ≤ 0.5 µM

Structure (SMILES): O=C(c1csc(-c2cn[nH]c2)c1)N1CC2CCC(C1)C2(O)c1ccccc1 (centres unmarked) [AA-32]
- IC50 (human 11β-HSD1 enzyme; [2]): 0.5 to 1 µM

Structure (SMILES): CC1(c2ccccc2Cl)CCN(C(=O)c2csc(-c3cn[nH]c3)c2)CC1 [AA-34]
- IC50 (human 11β-HSD1 enzyme; [2]): ≤ 0.5 µM

Structure (SMILES): O=C(c1csc(-c2cn[nH]c2)c1)N1CCC(F)(c2ccc(Cl)cc2)CC1 [AA-35]
- IC50 (human 11β-HSD1 enzyme; [2]): 0.5 to 1 µM

Structure (SMILES): O=C(c1csc(-c2cn[nH]c2)c1)N1CCC(F)(c2ccc(Cl)cc2Cl)CC1 [AA-38]
- IC50 (human 11β-HSD1 enzyme; [2]): ≤ 0.5 µM

Structure (SMILES): O=C(c1csc(-c2cn[nH]c2)c1)N1CC2CCC(C1)C2(F)c1ccccc1 (centres unmarked) [AA-39, (8-Fluoro-8-phenyl-3-aza-bicyclo[3.2.1]oct-3-yl)-[5-(1H-pyrazol-4-yl)-thiophen-3-yl]methanone]
- IC50 (human 11β-HSD1 enzyme; [2]): 1 to 10 µM

Structure (SMILES): Cc1cccc(F)c1C1(F)CCN(C(=O)c2csc(-c3cn[nH]c3)c2)CC1 [AA-40]
- IC50 (human 11β-HSD1 enzyme; [2]): ≤ 0.5 µM

Structure (SMILES): N#CC1(c2ccccc2Cl)CCN(C(=O)c2csc(-c3cn[nH]c3)c2)CC1 [AA-41]
- IC50 (human 11β-HSD1 enzyme): 1 to 10 µM

Structure (SMILES): O=C(c1csc(-c2cn[nH]c2)c1)N1CCC(c2ccc(F)cc2)CC1 [BB-01]
- % Parent Remaining at 30 min [1]: +++ (61-100% +++)
- IC50 (human 11β-HSD1 enzyme; [2]): 0.5 to 1 µM

Structure (SMILES): N#Cc1ccc(C2CCN(C(=O)c3csc(-c4cn[nH]c4)c3)CC2)cc1 [BB-02]
- IC50 (human 11β-HSD1 enzyme; [2]): 1 to 10 µM

Structure (SMILES): N#Cc1ccccc1C1CCN(C(=O)c2csc(-c3cn[nH]c3)c2)CC1 [BB-04]
- % Parent Remaining at 30 min [1]: ++ (31-60% ++)
- IC50 (human 11β-HSD1 enzyme; [2]): ≤ 0.5 µM

Structure (SMILES): O=C(c1csc(-c2cn[nH]c2)c1)N1CCC(c2cccc(F)c2)CC1 [BB-05]
- % Parent Remaining at 30 min [1]: ++ (31-60% ++)
- IC50 (human 11β-HSD1 enzyme; [2]): ≤ 0.5 µM

Structure (SMILES): O=C(c1csc(-c2cn[nH]c2)c1)N1CCC(c2ccc(Cl)cc2)CC1 [BB-06]
- % Parent Remaining at 30 min [1]: +++ (61-100% +++)
- IC50 (human 11β-HSD1 enzyme; [2]): 0.5 to 1 µM

Structure (SMILES): O=C(c1csc(-c2cn[nH]c2)c1)N1CCC(c2ccccc2F)CC1 [BB-07]
- % Parent Remaining at 30 min [1]: + (0-30% +)
- IC50 (human 11β-HSD1 enzyme; [2]): ≤ 0.5 µM

Structure (SMILES): O=C(c1csc(-c2cn[nH]c2)c1)N1CCC(c2ccccc2OC(F)F)CC1 [BB-09]
- IC50 (human 11β-HSD1 enzyme; [2]): ≤ 0.5 µM

Structure (SMILES): O=C(c1csc(-c2cn[nH]c2)c1)N1CCC(c2ccc(F)cc2F)CC1 [BB-10]
- IC50 (human 11β-HSD1 enzyme; [2]): 0.5 to 1 µM

Structure (SMILES): Cc1n[nH]cc1-c1cc(C(=O)N2CCC(c3ccccc3)CC2)cs1 [BB-11]
- IC50 (human 11β-HSD2): > 10 µM
- IC50 (human 11β-HSD1 enzyme; HEK293 cells stably transfected with human 11β-HSD1, Table 1, read-out: IC50 for 11β-HSD1 (HEK293)): 0.638 µM
- IC50 (human 11β-HSD1 enzyme; [2]): 0.5 to 1 µM

Structure (SMILES): Cc1ccccc1C1CCN(C(=O)c2csc(-c3cn[nH]c3)c2)CC1 [BB-12]
- IC50 (human 11β-HSD1 enzyme; [2]): ≤ 0.5 µM

Structure (SMILES): O=C(c1csc(-c2cn[nH]c2)c1)N1CCC(c2ccccc2C(F)(F)F)CC1 [BB-13]
- % Parent Remaining at 30 min [1]: +++ (61-100% +++)
- IC50 (human 11β-HSD1 enzyme; [2]): 0.5 to 1 µM

Structure (SMILES): O=C(c1csc(-c2cn[nH]c2)c1)N1CCC(c2ccccc2CO)CC1 [BB-14]
- IC50 (human 11β-HSD1 enzyme; [2]): ≤ 0.5 µM

Structure (SMILES): O=C(c1csc(-c2cn[nH]c2)c1)N1CCC(c2ccccc2Cl)CC1 [BB-15]
- IC50 (human 11β-HSD1 enzyme; [2]): ≤ 0.5 µM
